Laboratory results from publication PMC9861386, “N-Heterocyclic Carbene-Iridium Complexes as Photosensitizers for In Vitro Photodynamic Therapy to Trigger Non-Apoptotic Cell Death in Cancer Cells” (Molecules, 2023).
Where two headings read alike, the source gives them in different places.

Legend:
[1] = system: PC-3 prostate cancer cells; assay: MTT cell viability, 72 h, dark or 458 nm irradiation; format: cell-based, human; conditions: for GI50: 72 h, MTT
Procedure: (§1) For all biology experiments, the compounds were solubilized in DMSO to reach a final fixed concentration equal to 0.1% v/v to avoid cytotoxicity caused by DMSO [89]. The results are normalized to controls (0.1% v/v DMSO). Depending on the cell type, approximatively 1000 to 10,000 cells/cm^2 were seeded in 48-well plates for MTT, ATP and GSH assays and 60 mm Petri dishes for Western blots. Cells were allowed to attach overnight and then incubated for 4 h with the different complexes (in the dark), then irradiated for 10 min, followed by an incubation in the dark up to 72 h.
(§2) Irradiation was conducted using an in-house device: a series of blue light LEDs selected according to the absorption spectra of the compounds at a 458 nm wavelength with an emitted power of 9.6 watts. The absorbed energy, or irradiance, was measured at 458 nm with a Thorlabs Optical Power Meter PM100A at 5 and 10 cm distance between the cell layer and the light source and expressed as mW/cm^2.
(§3) A tetrazolium-based MTT reagent (3-(4,5-dimethylthiazol-2-yl)-2,5-diphenyltetrazolium bromide) was used to determine cell viability, as previously described. After 72 h of treatment at 37 °C and 5% CO2, cells were incubated with 25 μL MTT solution (5 mg/mL; Sigma-Aldrich) for 4 h. After solubilization with 500 μL of lysis buffer (DMSO), formazan was quantified by spectrophotometry with a microplate reader at 570 nm absorbance (ClarioSTAR, BMG LabTech, Champigny-sur-Marne, France). GI50 values corresponding to the concentration that caused 50% inhibition of cell proliferation were calculated from dose–response curves obtained by nonlinear regression analysis. All results were calculated from data obtained in at least three independent experiments.

[2] = system: A549 lung cancer cells; assay: as above; format: cell-based, human; conditions: for GI50: 72 h, MTT
Procedure: as §1, §2, §3

[3] = system: MCF7/FasR breast cancer cells; assay: as above; format: cell-based, human; conditions: for GI50: 72 h, MTT
Procedure: as §1, §2, §3

[4] = system: HeLa cervix cancer cells; assay: as above; format: cell-based, human; conditions: for GI50: 72 h, MTT
Procedure: as §1, §2, §3

[5] = system: T24 bladder cancer cells; assay: as above; format: cell-based, human; conditions: for GI50: 72 h, MTT
Procedure: as §1, §2, §3

[6] = Photophysical measurements (emission, quantum yield, lifetime) in CH2Cl2; format: physicochemical
Excerpt: All complexes have been photophysically investigated at standard pressure in CH2Cl2 at 298 K. The absorption spectra of complexes 4a to 4g in CH2Cl2 at 298 K are shown in Figure 7. The strong absorption bands below 300 nm correspond to spin-allowed ^1π→π* electronic ligand-centered (LC) transitions. The structureless bands at 300–360 nm are attributed to ppy-to-ppy ^1π→π* […] charge transfer (LLCT) and Ir-to-ppy metal-to-ligand charge transfer (MLCT) transitions. The lowest-lying bands in the visible region can be assigned to both singlet and triplet MLCT transitions. No significant difference in the absorption spectra of complexes 4a to 4g can be found in the CH2Cl2 solution.
The luminescence spectra of complexes 4a to 4f in CH2Cl2 at 298 K are shown in Figure 8 and their photophysical data are summarized in Table 1.
The relative emission quantum yields (ΦPL) of these complexes in CH2Cl2 at room temperature were measured by using POPOP and quinine sulfate in 1 N H2SO4 as standard references (ΦPL = 97% and ΦPL = 54%, respectively). […] In addition, the excited-state lifetimes of complexes 4a to 4d are in the range of 166.4–190.7 ns, indicating the phosphorescence nature of the emissions.
UV/Vis absorption spectra were recorded at RT on solutions contained in quartz cuvettes (optical pathlength 1 cm, Hellma® (HELLMA, Müllheim, Germany)) with a PerkinElmer® (PerkinElmer, Waltham, MA, USA) UV/VIS/NIR spectrophotometer Lambda 950 and a PerkinElmer® detector UV/VIS/NIR Accessory 2D Detector Module.
Fluorescence and phosphorescence emission spectra were obtained with a HORIBA JOBIN YVON (Bensheim, Germany) fluromax-4 and spectrofluorometer.
Luminescence quantum yields were measured according to the method of Demas and Crosby, on solution samples at RT. The quantum yield is defined as: ΦS=ΦR*As/Ar* ηs/ηr^2^2 where ΦS is the quantum yield of the sample, ΦR is the known quantum yield of the reference standard at the area subtended by the emission band (on a wavelength scale) and η is the refractive index of the solvent used for the preparation of the solution. As (related to the sample) and Ar (related to the reference) must be excitation wavelength. Different standards were selected depending on the spectral region of the interest: POPOP in hexane (Φ = 97%) and QUININNE in water (Φ = 54%).
Fluorescence lifetime measurements were performed by an Edinburgh FLS920 spectrofluorometer equipped with a TCC900 card for data acquisition in time-correlated single-photon counting experiments (0.5 ns time resolution) with a D2 lamp and an LDH-P-C-405 pulsed diode laser. The estimated experimental error was 2 nm on the band maximum (5% on the lifetime, 10% on the fluorescence quantum yield).

[7] = system: panel of five cancer cell lines (T24, PC-3, MCF7, A549, HeLa); assay: MTT cell viability, 72 h, pooled over the cancer cell panel; format: cell-based, human
Procedure: as §1, §2, §3

[8] = GI50 non-irradiated / GI50 irradiated

## CC(C)C[n+]1ccn2[c]1[Ir-3]13([c]4ccccc4-c4cccc[n+]41)([c]1ccccc1-c1cccc[n+]13)[c]1n(cc[n+]1CC(C)C)C2.F[P-](F)(F)(F)(F)F [Complex 4b]
[1]; 458 nm irradiation 10 min, read-out: GI50 PC-3 Blue
  GI50: 71 nM
[1]; [8]
  PI PC-3: 3.6
[1]; blue light, GI50 MC3T3 / GI50 PC-3
  SI vs MC3T3, PC-3 Blue: 9.9
[1]; blue light, GI50 NIH-3T3 / GI50 PC-3
  SI vs NIH, PC-3 Blue: 21.4
[1]; dark, read-out: GI50 PC-3 Dark
  GI50: 257 nM
[1]; dark, GI50 MC3T3 / GI50 PC-3
  SI vs MC3T3, PC-3 Dark: 3.8
[1]; dark, GI50 NIH-3T3 / GI50 PC-3
  SI vs NIH, PC-3 Dark: 7.6
[2]; 458 nm irradiation 10 min, read-out: GI50 A549 Blue
  GI50: 84 nM
[2]; [8]
  PI A549: 4.2
[2]; blue light, GI50 MC3T3 / GI50 A549
  SI vs MC3T3, A549 Blue: 8.4
[2]; blue light, GI50 NIH-3T3 / GI50 A549
  SI vs NIH, A549 Blue: 18.1
[2]; dark, read-out: GI50 A549 Dark
  GI50: 354 nM
[2]; dark, GI50 MC3T3 / GI50 A549
  SI vs MC3T3, A549 Dark: 2.8
[2]; dark, GI50 NIH-3T3 / GI50 A549
  SI vs NIH, A549 Dark: 5.5
[3]; 458 nm irradiation 10 min, read-out: GI50 MCF7 Blue
  GI50: 53 nM
[3]; [8]
  PI MCF7: 4.0
[3]; blue light, GI50 MC3T3 / GI50 MCF7
  SI vs MC3T3, MCF7 Blue: 13.3
[3]; blue light, GI50 NIH-3T3 / GI50 MCF7
  SI vs NIH, MCF7 Blue: 28.7
[3]; dark, read-out: GI50 MCF7 Dark
  GI50: 211 nM
[3]; dark, GI50 MC3T3 / GI50 MCF7
  SI vs MC3T3, MCF7 Dark: 4.6
[3]; dark, GI50 NIH-3T3 / GI50 MCF7
  SI vs NIH, MCF7 Dark: 9.2
[4]; 458 nm irradiation 10 min, read-out: GI50 HeLa Blue
  GI50: 294 nM
[4]; [8]
  PI HeLa: 2.1
[4]; blue light, GI50 MC3T3 / GI50 HeLa
  SI vs MC3T3, HeLa Blue: 2.4
[4]; blue light, GI50 NIH-3T3 / GI50 HeLa
  SI vs NIH, HeLa Blue: 5.2
[4]; dark, read-out: GI50 HeLa Dark
  GI50: 625 nM
[4]; dark, GI50 MC3T3 / GI50 HeLa
  SI vs MC3T3, HeLa Dark: 1.6
[4]; dark, GI50 NIH-3T3 / GI50 HeLa
  SI vs NIH, HeLa Dark: 3.1
[5]; 458 nm irradiation 10 min, read-out: GI50 T24 Blue
  GI50: 90 nM
[5]; [8]
  PI T24: 2.8
[5]; blue light, GI50 MC3T3 / GI50 T24
  SI vs MC3T3, T24 Blue: 7.7
[5]; blue light, GI50 NIH-3T3 / GI50 T24
  SI vs NIH, T24 Blue: 16.7
[5]; dark, read-out: GI50 T24 Dark
  GI50: 259 nM
[5]; dark, GI50 MC3T3 / GI50 T24
  SI vs MC3T3, T24 Dark: 3.8
[5]; dark, GI50 NIH-3T3 / GI50 T24
  SI vs NIH, T24 Dark: 7.5
[6]; CH2Cl2
  τ1 excited-state lifetime: 166 ns
[6]; CH2Cl2, 298 K, references POPOP and quinine sulfate
  ΦPL emission quantum yield: 1.6%
[7]; GI50 MC3T3 / GI50 of all irradiated cancer cell lines
  Average SI vs MC3T3, Blue light: 8.3
[7]; GI50 NIH-3T3 / GI50 of all irradiated cancer cell lines
  Average SI vs NIH, Blue light: 18
